Measurements taken from patent publication US10407395B2, “Benzimidazole compound and medical use thereof” (Sumitomo Dainippon Pharma Co., Ltd., priority 2015, dated 2019).

Biological target: human SCN9A (Nav 1.7) (Homo sapiens, UniProt Q15858)
Experiment: Measurement of Na ion current (Nav 1.7) by automated patch clamp assay in cells stably-expressing human SCN9A
Assay type: cell-based
Conditions: holding potential inactivating 50% Nav 1.7 channel (around −60 mV), read-out: Inhibitory rate (%) of Na ion current; for inhibition at 10 µM: compound concentration 10 μmol/L; for inhibition at 100 µM: compound concentration 100 μmol/L (footnoted examples)
Description: Measurement of Na Ion Current in Voltage-Dependent Na Channel Gene Expressed Cell Nav 1.7 current was measured by automated patch clamp assay using cells stably-expressing human SCN9A. Cells Stably-expressing Human SCN9A Tetracycline-induced cells stably-expressing SCN9A were obtained from ChanTest Corporation. […] Next day, the Na ion current was measured by automated patch clamp assay. Electrophysiologic Measurement of Na Ion Current The Na ion current was measured by automated patch clamp assay using the following extracellular solution and intracellular solution. […] The control of the stimulating pulse and the data acquisition were carried out using EPC10 amplifier and Patch Master Software (HEKA). Data were sampled at 10 kHz, and low-pass filtered at 3 kHz. All the measurements were carried out at room temperature. […] The inhibitory rate of the Na ion current by the test compounds was calculated according to the following calculating formula with the peak current value generated by the depolarizing pulse. […] The inhibitory rate of Na ion current by each Example Compound was evaluated.

human SCN9A (Nav 1.7), sequence (Q15858 whole entry): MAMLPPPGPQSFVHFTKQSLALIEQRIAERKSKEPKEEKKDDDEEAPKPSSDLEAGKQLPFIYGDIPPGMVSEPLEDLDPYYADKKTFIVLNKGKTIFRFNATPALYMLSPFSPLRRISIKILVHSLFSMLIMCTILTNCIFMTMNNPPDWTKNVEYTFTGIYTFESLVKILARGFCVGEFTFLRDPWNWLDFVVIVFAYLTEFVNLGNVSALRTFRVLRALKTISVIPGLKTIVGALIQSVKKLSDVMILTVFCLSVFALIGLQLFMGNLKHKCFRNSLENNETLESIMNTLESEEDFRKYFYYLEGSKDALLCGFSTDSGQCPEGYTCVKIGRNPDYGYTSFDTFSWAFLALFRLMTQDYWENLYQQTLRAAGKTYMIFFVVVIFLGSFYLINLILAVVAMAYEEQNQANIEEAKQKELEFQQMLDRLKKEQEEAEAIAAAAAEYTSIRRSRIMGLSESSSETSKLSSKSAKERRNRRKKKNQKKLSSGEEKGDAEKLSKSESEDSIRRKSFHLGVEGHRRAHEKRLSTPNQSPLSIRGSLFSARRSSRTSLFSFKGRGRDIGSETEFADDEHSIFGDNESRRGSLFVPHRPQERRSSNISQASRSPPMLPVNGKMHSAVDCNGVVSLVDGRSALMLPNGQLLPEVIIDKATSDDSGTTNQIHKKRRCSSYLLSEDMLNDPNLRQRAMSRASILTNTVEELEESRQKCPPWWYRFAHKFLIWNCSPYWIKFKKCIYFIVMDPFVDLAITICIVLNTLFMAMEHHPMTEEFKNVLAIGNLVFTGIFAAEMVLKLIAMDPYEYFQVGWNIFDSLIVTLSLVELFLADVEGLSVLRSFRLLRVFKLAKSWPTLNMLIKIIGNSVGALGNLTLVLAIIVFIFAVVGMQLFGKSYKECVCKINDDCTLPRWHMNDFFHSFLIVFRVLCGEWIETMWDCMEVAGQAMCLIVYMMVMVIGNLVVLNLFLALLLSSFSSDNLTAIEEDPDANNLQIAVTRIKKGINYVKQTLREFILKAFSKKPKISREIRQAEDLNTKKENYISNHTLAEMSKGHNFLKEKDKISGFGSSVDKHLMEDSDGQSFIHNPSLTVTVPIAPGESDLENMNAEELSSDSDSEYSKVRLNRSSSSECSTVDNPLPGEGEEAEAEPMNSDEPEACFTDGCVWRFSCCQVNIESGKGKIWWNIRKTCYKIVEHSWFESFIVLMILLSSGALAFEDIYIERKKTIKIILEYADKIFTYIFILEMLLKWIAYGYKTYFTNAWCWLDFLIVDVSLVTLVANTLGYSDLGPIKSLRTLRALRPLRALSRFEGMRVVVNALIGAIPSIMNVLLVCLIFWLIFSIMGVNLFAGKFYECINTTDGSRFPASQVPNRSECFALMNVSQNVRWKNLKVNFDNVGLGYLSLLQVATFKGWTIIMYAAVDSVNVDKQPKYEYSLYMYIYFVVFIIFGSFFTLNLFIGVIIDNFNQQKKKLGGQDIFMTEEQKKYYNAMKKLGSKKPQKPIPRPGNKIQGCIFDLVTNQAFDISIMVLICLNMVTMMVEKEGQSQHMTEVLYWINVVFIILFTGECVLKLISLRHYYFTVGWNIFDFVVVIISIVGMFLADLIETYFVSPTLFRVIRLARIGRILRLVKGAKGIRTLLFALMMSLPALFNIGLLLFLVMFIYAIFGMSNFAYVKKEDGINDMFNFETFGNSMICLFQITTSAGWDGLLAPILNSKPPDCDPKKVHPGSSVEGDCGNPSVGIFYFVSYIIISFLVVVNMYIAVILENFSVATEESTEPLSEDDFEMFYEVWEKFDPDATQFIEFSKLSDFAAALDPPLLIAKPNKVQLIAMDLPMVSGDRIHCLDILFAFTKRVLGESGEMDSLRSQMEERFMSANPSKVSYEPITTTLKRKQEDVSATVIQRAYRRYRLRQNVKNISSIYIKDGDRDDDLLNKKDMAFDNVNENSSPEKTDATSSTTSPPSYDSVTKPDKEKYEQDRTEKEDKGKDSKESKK

| SMILES | inhibition at 10 µM [%] | inhibition at 100 µM [%] |
| --- | --- | --- |
| OC1(Cn2cnc3cc(-c4ccc(C(F)(F)F)cc4F)ccc32)COC1 [Example 203] | 26 |  |
| OC1(Cn2cnc3ccc(Oc4cc(Cl)ccc4Cl)cc32)COC1 [Example 112] | 39 |  |
| Cc1ccc(Cl)cc1-c1ccc2ncn(CC3(O)COC3)c2c1 [Example 160] | 25 |  |
| CC(C)(O)Cn1cnc2ccc(-c3cccc(OC(F)(F)F)c3)cc21 [Example 141] | 53 |  |
| FC(F)(F)c1ccc(-c2ccc3ncn(CC4CCCO4)c3c2)nc1 (stereo not drawn) [Example 8] | 32 |  |
| OC1(Cn2cnc3ccc(Oc4ccc(CC(F)(F)F)cc4)cc32)COC1 [Example 105] | 38 |  |
| CC(C)(O)Cn1cnc2cc(-c3cnoc3)ccc21 [Example 202] | 21 |  |
| OC1(Cn2cnc3cc(Oc4ccc(C(F)(F)F)cc4)ccc32)COC1 [Example 226] | 45 |  |
| CC(C)(O)Cn1cnc2ccc(Oc3ccc(C(F)(F)F)cc3)cc21 [Example 15, 2-methyl-1-{6-[4-(trifluoromethyl)phenoxy]-1H-benzimidazol-1-yl}propan-2-ol] | 57 |  |
| CC(C)(O)Cn1cnc2cc(-c3cccc(OC(F)(F)F)c3)ccc21 [Example 198] | 58 |  |
| OC1(Cn2cnc3ccc(-c4ccc(Cl)cc4Cl)cc32)COC1 [Example 156] | 54 |  |
| Fc1ccc(Oc2ccc3ncn(CCOC4CCCC4)c3c2)cc1 [Example 4, 1-[2-(cyclopentyloxy)ethyl]-6-(4-fluorophenoxy)-1H-benzimidazole] | 52 |  |
| OC1(Cn2cnc3ccc(Oc4ccc(C(F)(F)F)cn4)cc32)CCCC1 [Example 119] | 36 |  |
| CC(C)(O)Cn1cnc2ccc(-c3ccc(N4CCOCC4)nc3)cc21 [Example 127] |  | 16 |
| CC(C)(O)Cn1cnc2cc(Oc3ncc(C(F)(F)F)cc3F)ccc21 [Example 53, 1-(5-{[3-fluoro-5-(trifluoromethyl)pyridin-2-yl]oxy}-1H-benzimidazol-1-yl)-2-methylpropan-2-ol] | 69 |  |
| CC(C)(O)Cn1cnc2ccc(-c3ccoc3)cc21 [Example 146] | 17 |  |
| COc1cccc(-c2ccc3c(c2)ncn3CC2(O)COC2)c1Cl [Example 216] | 53 |  |
| Cc1cc(Cl)ccc1-c1ccc2c(c1)ncn2CC(C)(C)O [Example 187] | 45 |  |
| C[C@]1(O)C[C@@H](n2cnc3ccc(Oc4ccc(OC(F)(F)F)cn4)cc32)C1 [Example 121] | 21 |  |
| Cc1c(-c2ccc3ncn(CC4(O)COC4)c3c2)cccc1C(F)(F)F [Example 166] | 54 |  |
| CC(C)(O)Cn1cnc2cc(-c3ccc(Cl)cc3)ccc21 [Example 178] | 34 |  |
| CC(C)(O)Cn1cnc2cc(-c3cccc(Cl)c3)ccc21 [Example 196] | 49 |  |
| CC(C)(O)Cn1cnc2ccc(-c3ccc4ncccc4c3)cc21 [Example 145] | 15 |  |
| COc1cc(-c2ccc3c(c2)ncn3CC(C)(C)O)cc(C(F)(F)F)c1 [Example 199] | 84 |  |
| CC(C)(O)CCn1cnc2cc(-c3ccc(F)cc3)ccc21 [Example 219] | 40 |  |
| Cc1c(Cl)cccc1-c1ccc2c(c1)ncn2CC1(O)COC1 [Example 208] | 43 |  |
| CC(C)(O)Cn1cnc2cc(Oc3cnc(C(F)(F)F)cn3)ccc21 [Example 51, 2-methyl-1-(5-{[5-(trifluoromethyl)pyrazin-2-yl]oxy}-1H-benzimidazol-1-yl)propan-2-ol] | 44 |  |

| SMILES | inhibition at 10 µM [%] | inhibition at 100 µM [%] |
| --- | --- | --- |
| OC1(Cn2cnc3ccc(Oc4ccc(Cl)cc4Cl)cc32)COC1 [Example 106] | 50 |  |
| OC1(Cn2cnc3ccc(Oc4ccc(C(F)(F)F)cc4)cc32)COC1 [Example 93, 3-({6-[4-(trifluoromethyl)phenoxy]-1H-benzimidazol-1-yl}methyl)oxetan-3-ol] | 42 |  |
| OC1(Cn2cnc3ccc(-c4cc(Cl)cc(Cl)c4)cc32)COC1 [Example 158] | 53 |  |
| Cc1ccc(-c2ccc3ncn(CC(C)(C)O)c3c2)cn1 [Example 126] |  | 7 |
| CC(C)(O)Cn1cnc2ccc(-c3ccc(C(F)(F)F)cc3Cl)cc21 [Example 136] | 70 |  |
| CC(C)(O)Cn1cnc2cc(-c3ccc(C(F)(F)F)cc3Cl)ccc21 [Example 192] | 78 |  |
| OC1(Cn2cnc3ccc(Oc4ccc(Cl)cc4)cc32)COC1 [Example 91] | 24 |  |
| CC(C)(O)CCn1cnc2ccc(Oc3cccc(F)c3)cc21 [Example 98] | 25 |  |
| CC(C)(O)Cn1cnc2cc(-c3cc(F)cc(Cl)c3)ccc21 [Example 200] | 52 |  |
| Cc1ccc(Cl)cc1-c1ccc2c(c1)ncn2CC1(O)COC1 [Example 209] | 48 |  |
| Cc1ccc(Oc2ccc3ncn(CCC(C)(C)O)c3c2)cc1 [Example 99] | 12 |  |
| COc1cc(C(F)(F)F)ccc1-c1ccc2ncn(CCC(C)(C)O)c2c1 [Example 173, 4-{6-[2-methoxy-4-(trifluoromethyl)phenyl]-1H-benzimidazol-1-yl}-2-methylbutan-2-ol] | 80 |  |
| OC1(Cn2cnc3ccc(Oc4ccc5scnc5c4)cc32)COC1 [Example 114] | 26 |  |
| OC1(Cn2cnc3ccc(Oc4cccc(F)c4)cc32)COC1 [Example 95] |  | 66 |
| CC(C)(O)Cn1cnc2ccc(-c3ccc(F)cc3)cc21 [Example 5, 1-[6-(4-fluorophenyl)-1H-benzimidazol-1-yl]-2-methylpropan-2-ol] | 39 |  |
| CC(C)(O)Cn1cnc2ccc(Oc3ccc(CC(F)(F)F)cn3)cc21 [Example 60, 2-methyl-1-(6-{[5-(2,2,2-trifluoroethyl)pyridin-2-yl]oxy}-1H-benzimidazol-1-yl)propan-2-ol] | 52 |  |
| COc1cc(-c2ccc3ncn(CC(C)(C)O)c3c2)cc(C(F)(F)F)c1 [Example 142] | 55 |  |
| CC(C)(O)Cn1cnc2ccc(-c3ccc(C(F)(F)F)nc3)cc21 [Example 122] | 14 |  |
| OC1(Cn2cnc3ccc(-c4ccc(Cl)cc4C(F)(F)F)cc32)COC1 [Example 151] | 44 |  |
| Cc1ccc(Oc2ccc3ncn(CC4(O)COC4)c3c2)cc1 [Example 92] | 16 |  |
| COc1cc(C(F)(F)F)ccc1-c1ccc2ncn(CC(C)(C)O)c2c1 [Example 124] | 61 |  |
| CC(C)(O)Cn1cnc2cc(Oc3ccc(C(F)(F)F)cc3)ccc21 [Example 225] | 64 |  |
| CC(C)(O)Cn1cnc2cc(Oc3ccc(C(F)(F)F)cc3F)ccc21 [Example 224, 1-{5-[2-fluoro-4-(trifluoromethyl)phenoxy]-1H-benzimidazol-1-yl}-2-methylpropan-2-ol] | 53 |  |
| OC1(Cn2cnc3ccc(Oc4ccc(Cl)cc4F)cc32)COC1 [Example 109] | 30 |  |
| COc1ccc(-c2ccc3c(c2)ncn3CC(C)(C)O)cn1 [Example 182] |  | 11 |
| CC(C)(O)CCn1cnc2cc(-c3ccc(C(F)(F)F)cc3F)ccc21 [Example 223] | 47 |  |
| Cc1c(Cl)cccc1-c1ccc2ncn(CC3(O)COC3)c2c1 [Example 159] | 45 |  |
